Reference: PubChem BioAssay (NCI)
Where “and” joins values, the source holds several entries; their conditions need not be identical. Equal entries are not always repeated.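 A five-concentration, 48-hour dose response in 96-well plates underlies each endpoint, interpolated linearly between surrounding concentrations. GI50: concentration for 50% inhibition of growth. TGI: total growth inhibition.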

Legend:
Assay in all cases: NCI anticancer screen, dose series, 48 h; in the data active = GI50 below about 0.43 µM; inactive = the rest
SK-MEL-28 melanoma = tested on: SK-MEL-28 melanoma
UACC-257 melanoma = tested on: UACC-257 melanoma
HCT-15 colon = tested on: HCT-15 colon
HL-60(TB) leukemia = tested on: HL-60(TB) leukemia
NCI-H23 lung = tested on: NCI-H23 lung
OVCAR-5 ovarian = tested on: OVCAR-5 ovarian
KM12 colon = tested on: KM12 colon
RXF 393 renal = tested on: RXF 393 renal
UACC-62 melanoma = tested on: UACC-62 melanoma
CCRF-CEM leukemia = tested on: CCRF-CEM leukemia
ACHN renal = tested on: ACHN renal
UO-31 renal = tested on: UO-31 renal
MOLT-4 leukemia = tested on: MOLT-4 leukemia
EKVX NSCLC = tested on: EKVX NSCLC
HOP-92 NSCLC = tested on: HOP-92 NSCLC
A549 NSCLC = tested on: A549 NSCLC
TK-10 renal = tested on: TK-10 renal
NCI-H226 lung = tested on: NCI-H226 lung
HCC-2998 colon = tested on: HCC-2998 colon
K-562 leukemia = tested on: K-562 leukemia
RPMI-8226 leukemia = tested on: RPMI-8226 leukemia
NCI/ADR-RES ovarian = tested on: NCI/ADR-RES ovarian
LOX IMVI melanoma = tested on: LOX IMVI melanoma
M14 melanoma = tested on: M14 melanoma
SN12C renal = tested on: SN12C renal
T-47D breast = tested on: T-47D breast
SNB-19 CNS = tested on: SNB-19 CNS
NCI-H460 lung = tested on: NCI-H460 lung
HT29 colon = tested on: HT29 colon
SW-620 colon = tested on: SW-620 colon
DU-145 prostate = tested on: DU-145 prostate
MALME-3M melanoma = tested on: MALME-3M melanoma
MDA-MB-435 = tested on: MDA-MB-435
SK-OV-3 ovarian = tested on: SK-OV-3 ovarian
OVCAR-4 ovarian = tested on: OVCAR-4 ovarian
IGROV1 ovarian = tested on: IGROV1 ovarian
COLO 205 colon = tested on: COLO 205 colon
NCI-H522 lung = tested on: NCI-H522 lung
HOP-62 NSCLC = tested on: HOP-62 NSCLC
SK-MEL-5 melanoma = tested on: SK-MEL-5 melanoma
MDA-N = tested on: MDA-N
CAKI-1 renal = tested on: CAKI-1 renal
HS 578T breast = tested on: HS 578T breast
HCT-116 colon = tested on: HCT-116 colon
SNB-75 CNS = tested on: SNB-75 CNS
SF-295 CNS = tested on: SF-295 CNS
SF-539 CNS = tested on: SF-539 CNS
U251 CNS = tested on: U251 CNS
MDA-MB-231 breast = tested on: MDA-MB-231 breast
786-0 renal = tested on: 786-0 renal
BT-549 breast = tested on: BT-549 breast
MCF7 breast = tested on: MCF7 breast
OVCAR-8 ovarian = tested on: OVCAR-8 ovarian
PC-3 prostate = tested on: PC-3 prostate
SR leukemia = tested on: SR leukemia
SK-MEL-2 melanoma = tested on: SK-MEL-2 melanoma
SF-268 CNS = tested on: SF-268 CNS
OVCAR-3 ovarian = tested on: OVCAR-3 ovarian
A498 renal = tested on: A498 renal

O=C1NNC(=O)c2ccccc2SSc2ccccc2C(=O)NNC(=O)c2ccccc2SSc2ccccc21
50 µM and 26.6 µM: TGI (786-0 renal)
50 µM and 73.8 µM: TGI (OVCAR-5 ovarian)
> 100 µM: TGI (UO-31 renal) | TGI (HOP-92 NSCLC) | TGI (HCC-2998 colon) | TGI (HS 578T breast) | TGI (MCF7 breast)
30.2 µM and > 100 µM: TGI (SF-268 CNS)
35 µM and 11.8 µM: TGI (CCRF-CEM leukemia)
> 50 µM: TGI (RXF 393 renal) | TGI (NCI-H226 lung)
inactive: GI50 (SK-MEL-28 melanoma) 23.1 µM | GI50 (UACC-257 melanoma) 45.2 µM | GI50 (HCT-15 colon) 4.61 µM | GI50 (NCI-H23 lung) 7.63 µM | GI50 (KM12 colon) 42.3 µM | GI50 (UACC-62 melanoma) 8.34 µM | GI50 (CCRF-CEM leukemia) 1.99 µM | GI50 (ACHN renal) 7.34 µM | GI50 (EKVX NSCLC) 10.5 µM | GI50 (HOP-92 NSCLC) > 100 µM | GI50 (A549 NSCLC) 11.3 µM | GI50 (TK-10 renal) 70.9 µM | GI50 (K-562 leukemia) 3.76 µM | GI50 (NCI/ADR-RES ovarian) 14 µM | GI50 (LOX IMVI melanoma) 7.02 µM | GI50 (M14 melanoma) 6.28 µM | GI50 (SN12C renal) 17 µM | GI50 (T-47D breast) 2.34 µM | GI50 (SNB-19 CNS) 6.35 µM | GI50 (NCI-H460 lung) 31 µM | GI50 (HT29 colon) 20.1 µM | GI50 (SW-620 colon) 6.81 µM | GI50 (DU-145 prostate) 5 µM | GI50 (MALME-3M melanoma) 25.9 µM | GI50 (MDA-MB-435) 16.3 µM | GI50 (SK-OV-3 ovarian) > 100 µM | GI50 (IGROV1 ovarian) 6.66 µM | GI50 (NCI-H522 lung) 3.43 µM | GI50 (SK-MEL-5 melanoma) 42.1 µM | GI50 (MDA-N) 11.9 µM | GI50 (CAKI-1 renal) 18.1 µM | GI50 (HS 578T breast) > 100 µM | GI50 (HCT-116 colon) 5.05 µM | GI50 (SF-295 CNS) 16.3 µM | GI50 (SF-539 CNS) 2.87 µM | GI50 (U251 CNS) 7.11 µM | GI50 (MDA-MB-231 breast) 11.4 µM | GI50 (786-0 renal) 10 µM | GI50 (BT-549 breast) 14.1 µM | GI50 (OVCAR-8 ovarian) 15.4 µM | GI50 (PC-3 prostate) 24.7 µM | GI50 (SR leukemia) 3.79 µM | GI50 (SK-MEL-2 melanoma) 4.93 µM | GI50 (SF-268 CNS) 9.81 µM
50 µM and 72.1 µM: TGI (HT29 colon)
50 µM: TGI (RPMI-8226 leukemia) | TGI (COLO 205 colon) | TGI (SNB-75 CNS)
50 µM and 37.1 µM: TGI (HCT-15 colon)
50 µM and 17.3 µM: TGI (MOLT-4 leukemia)
50 µM and 32.5 µM: TGI (M14 melanoma)
50 µM and > 100 µM: TGI (SK-MEL-28 melanoma) | TGI (UACC-257 melanoma) | TGI (KM12 colon) | TGI (UACC-62 melanoma) | TGI (ACHN renal) | TGI (EKVX NSCLC) | TGI (A549 NSCLC) | TGI (TK-10 renal) | TGI (K-562 leukemia) | TGI (NCI/ADR-RES ovarian) | TGI (LOX IMVI melanoma) | TGI (SN12C renal) | TGI (SNB-19 CNS) | TGI (NCI-H460 lung) | TGI (SW-620 colon) | TGI (MDA-MB-435) | TGI (SK-OV-3 ovarian) | TGI (OVCAR-4 ovarian) | TGI (IGROV1 ovarian) | TGI (HOP-62 NSCLC) | TGI (SK-MEL-5 melanoma) | TGI (MDA-N) | TGI (CAKI-1 renal) | TGI (HCT-116 colon) | TGI (SF-295 CNS) | TGI (SF-539 CNS) | TGI (U251 CNS) | TGI (MDA-MB-231 breast) | TGI (BT-549 breast) | TGI (OVCAR-8 ovarian) | TGI (PC-3 prostate) | TGI (SK-MEL-2 melanoma) | TGI (OVCAR-3 ovarian)
42.6 µM and > 100 µM: TGI (MALME-3M melanoma)
23.8 µM: TGI (HL-60(TB) leukemia)
50 µM and 33.6 µM: TGI (DU-145 prostate)
50 µM and 14.5 µM: TGI (NCI-H522 lung)
50 µM and 32.7 µM: TGI (SR leukemia)
50 µM and 8.18 µM: TGI (T-47D breast)
50 µM and 59.8 µM: TGI (NCI-H23 lung)

COc1cccc(-c2nc3ccccc3c(=O)[nH]2)c1
42 µM: TGI (NCI-H460 lung)
> 100 µM: TGI (HL-60(TB) leukemia) | TGI (NCI-H23 lung) | TGI (OVCAR-5 ovarian) | TGI (MOLT-4 leukemia) | TGI (HOP-92 NSCLC) | TGI (K-562 leukemia) | TGI (LOX IMVI melanoma) | TGI (M14 melanoma) | TGI (SW-620 colon) | TGI (DU-145 prostate) | TGI (COLO 205 colon) | TGI (OVCAR-8 ovarian) | TGI (SR leukemia) | TGI (SK-MEL-2 melanoma)
47.9 µM: TGI (HS 578T breast)
44 µM: TGI (UACC-62 melanoma)
82.2 µM: TGI (SN12C renal)
46.7 µM: TGI (SNB-19 CNS)
60.8 µM: TGI (NCI-H522 lung)
48.2 µM: TGI (SK-OV-3 ovarian)
43.1 µM: TGI (MCF7 breast)
58.8 µM: TGI (IGROV1 ovarian)
45.2 µM: TGI (UO-31 renal)
44.8 µM: TGI (SF-268 CNS)
51.6 µM: TGI (HCT-15 colon) | TGI (A498 renal)
37.4 µM: TGI (ACHN renal)
37.1 µM: TGI (HOP-62 NSCLC) | TGI (CAKI-1 renal)
56.2 µM: TGI (UACC-257 melanoma)
28.1 µM: TGI (MDA-MB-435) | TGI (786-0 renal)
36.9 µM: TGI (TK-10 renal) | TGI (MDA-N)
52.5 µM: TGI (MALME-3M melanoma)
60.1 µM: TGI (HCT-116 colon)
55.5 µM: TGI (HT29 colon)
58.9 µM: TGI (MDA-MB-231 breast)
87.7 µM: TGI (EKVX NSCLC)
41.7 µM: TGI (PC-3 prostate)
49.4 µM: TGI (A549 NSCLC)
88.9 µM: TGI (SF-295 CNS)
56.6 µM: TGI (RXF 393 renal)
42.7 µM: TGI (OVCAR-3 ovarian)
44.7 µM: TGI (U251 CNS)
65.8 µM: TGI (SK-MEL-5 melanoma)
54.3 µM: TGI (HCC-2998 colon)
86.9 µM: TGI (KM12 colon)
61.8 µM: TGI (BT-549 breast)
96.6 µM: TGI (SK-MEL-28 melanoma)
50.5 µM: TGI (T-47D breast)
51.8 µM: TGI (NCI/ADR-RES ovarian)
50.3 µM: TGI (SF-539 CNS)

O=C1NC(N/N=C/C(O)C(O)C(O)C(O)CO)=N/C1=C\c1ccco1 (configuration not stated)
> 100 µM: TGI (SK-MEL-28 melanoma) | TGI (UACC-257 melanoma) | TGI (HCT-15 colon) | TGI (HL-60(TB) leukemia) | TGI (NCI-H23 lung) | TGI (OVCAR-5 ovarian) | TGI (KM12 colon) | TGI (RXF 393 renal) | TGI (UACC-62 melanoma) | TGI (CCRF-CEM leukemia) | TGI (ACHN renal) | TGI (MOLT-4 leukemia) | TGI (EKVX NSCLC) | TGI (HOP-92 NSCLC) | TGI (A549 NSCLC) | TGI (TK-10 renal) | TGI (NCI-H226 lung) | TGI (K-562 leukemia) | TGI (RPMI-8226 leukemia) | TGI (NCI/ADR-RES ovarian) | TGI (LOX IMVI melanoma) | TGI (M14 melanoma) | TGI (SN12C renal) | TGI (T-47D breast) | TGI (SNB-19 CNS) | TGI (NCI-H460 lung) | TGI (HT29 colon) | TGI (SW-620 colon) | TGI (DU-145 prostate) | TGI (MALME-3M melanoma) | TGI (MDA-MB-435) | TGI (SK-OV-3 ovarian) | TGI (OVCAR-4 ovarian) | TGI (IGROV1 ovarian) | TGI (COLO 205 colon) | TGI (NCI-H522 lung) | TGI (HOP-62 NSCLC) | TGI (SK-MEL-5 melanoma) | TGI (MDA-N) | TGI (CAKI-1 renal) | TGI (A498 renal) | TGI (HS 578T breast) | TGI (HCT-116 colon) | TGI (SNB-75 CNS) | TGI (SF-295 CNS) | TGI (SF-539 CNS) | TGI (U251 CNS) | TGI (MDA-MB-231 breast) | TGI (786-0 renal) | TGI (BT-549 breast) | TGI (MCF7 breast) | TGI (OVCAR-8 ovarian) | TGI (PC-3 prostate) | TGI (SK-MEL-2 melanoma) | TGI (SF-268 CNS) | TGI (OVCAR-3 ovarian)
